Consider three compounds from US12577247B2 (BUGWORKS RESEARCH, INC., priority 2021, dated 2026).

Read-outs that look alike come from different tables or passages of the source.

In one series the target is T1, A2A receptor (Homo sapiens, UniProt P29274).
T1 construct: host or cells: HEK-293
As to the kind of experiment: A2aR antagonism IC50, cAMP TR-FRET (Lance Ultra) in HEK-293 cells, NECA as agonist.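 Further: compounds tested from 10 µM down to 0.08 nM in buffer with Rolipram at room temperature, TR-FRET cAMP signal read 1 h after adding Eu-cAMP tracer and ULight anti-cAMP.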 The settings on record: A2AR IC50 (nM) (@5 nM NECA), HEK-293 cells expressing A2A receptor; agonist NECA 5 nM (EC90); inhibition of cAMP. The series is classed as cell-based. Background: In TR-FRET formats the signal depends on donor and acceptor labels being close together.

Series [1] is described as follows: Plasma protein binding, equilibrium dialysis, dog. It is filed as in vitro ADME. The settings on record: plasma (10% plasma, extrapolated to 100% plasma), Beagle plasma, 18 hours at 37° C. As for the experimental part: (§1) Protein binding is measured using the equilibrium dialysis technique. Compound is added to 10% plasma giving a concentration of 10 μM and dialysed with isotonic buffer for 18 hours at 37° C. The plasma and buffer solutions are analysed using generic LC UV/MS and the first apparent binding constant for the compound derived. The binding constant is then used to determine the % free in 100% plasma
(§2) The percentage of plasma bound/unbound fraction preparation was calculated as follows
(§3) [formula] [formula] where, • Tc=Total plasma concentration was determined by the calculated concentration on the plasma side of the chamber • Fc=[…] was determined by the calculated concentration on the buffer side of the chamber • To=Total compound concentration determined before analysis.

Series [2] can be described thus: Plasma protein binding, equilibrium dialysis, mouse. It is filed as in vitro ADME. To be noted: plasma (10% plasma, extrapolated to 100% plasma), CD-1 plasma, 18 hours at 37° C. As for the experimental part: as §1, §2, §3
Series [3] can be described thus: Pharmacokinetic study in rats. The series is classed as in vivo, male Sprague-Dawley (SD) rats. To be noted: for Vd / clearance / half-life / Cmax / Tmax / bioavailability: male, Sprague-Dawley, plasma; for Vd: read-out: Vss; for Cmax / Tmax: p.o; for Cmax: read-out: Cmax (head Co*/); for Tmax: read-out: Tmax (head Tma); for bioavailability: rat. As for the experimental part:
Intravenous (i.v) and Oral formulations for pharmacokinetic (PK) studies was formulated in different vehicles and excipients to achieve the desirable solubility for intravenous and Oral routes of administration.
Appropriate amount of the test compound was weighed and dissolved in required volume of the vehicles, followed by vertexing for a few seconds to dissolve the compound. Then the solution (or) suspension was sonicated at room temperature for 5 minutes to obtain a visually clear solution and or homogenous suspension. All the formulations were prepared freshly at room temperature before dosing.
The rodent pharmacokinetic studies were carried out in male Sprague-Dawley (SD) rats (8-12 weeks of age, weighing 280±20 g at the time of dosing) and CD1 mice (8-12 weeks of age, weighing 30-35 g body weight at the time of dosing) to estimate the plasma clearance, volume of distribution and terminal half-life, area under curve (AUC) and peak plasma concentration (Cmax) and time of peak plasma concentration (Tmax) following intravenous and oral routes of administration. The detailed experimental design is described in the Table 8 below.
Rats were anaesthetized by Isoflurane anaesthesia. The jugular and femoral veins of rat were cannulated, and the study was performed 48 h post cannulation. At each time point about 100 μL, of rat blood was collected from the jugular vein into a labelled microfuge tube containing 200 mM K2EDTA solution (20 μL, per mL of blood) and equivalent volume of heparinized saline was replaced following sample collection. Similarly, 25 μL, of mice blood was collected from the saphenous vein into a labelled microfuge tube containing 200 mM K2EDTA solution
Serial blood sampling method was used for blood collection. Blood samples were collected at pre-dose, 0.25 h, 0.5, 1, 2, 4, 6, 8 and 24-hours post dose. The blood samples were processed to obtain the plasma samples within 30 min of scheduled sampling time. All plasma samples were stored −70° C. until bioanalysis.
Plasma samples were analysed for a fit-for purpose LC-MS/MS method with a lower limit of quantification. The pharmacokinetic parameters were calculated using the non-compartmental analysis tool of validated Phoenix® WinNonlin® software (Certara, USA version 8.4) with linear up and log down method for estimating AUC.
All animals in intravenous (IV bolus) group were under fed state and animals in oral groups were fasted overnight (min 12 hr) before dose administration and food was provided 4 h post dose administration. All animals were received water ad libitum during the study period. The mean (±SD) pharmacokinetic parameters of Example 13, Example 122b & Example 39 following IV bolus and Oral dose administration in Mice/Rat and Dog is provided in Table-9.

A further series has as its target T2, hERG potassium channel (Homo sapiens, UniProt Q12809).
T2 construct: a Chinese Hamster Ovary cell line stably expressing the full-length hERG potassium channel; expressed in transfected cells; host or cells: Chinese Hamster Ovary cell line
As to the kind of experiment: hERG inhibition assay, Qpatch HTX automated electrophysiology. The series is classed as cell-based. To be noted: CHO cell line stably expressing hERG; whole-cell patch clamp; room temperature. As for the experimental part: The representative compounds of formula I were tested for inhibition of the human ether a go-go related gene (hERG) K+ channel using Qpatch HTX automated electrophysiology. 6-Point concentration-response curves were generated using three-fold serial dilutions from a maximum final test concentration of […] and the results are presented in Table 3.
Compounds were solubilised to 100 mM in DMSO before dilution in HBPS to 100 μM. […] Electrophysiological recordings were made from a Chinese Hamster Ovary cell line stably expressing the full-length hERG potassium channel. Single cell ionic currents were measured in whole-cell patch clamp configuration at room temperature (21-23° C.) using the Qpatch HTX platform (Sophion). Intracellular solution contained (mM): 120 KF, 20 KCl, 10 EGTA, 10 HEPES and was buffered to pH 7.3. […] Cells were clamped at a holding potential of −80 mV. Cells were stepped to +20 mV for 2 s then −40 mV for 3 s before returning to the holding potential. This sweep was repeated 10 times at 10 s intervals. hERG currents were measured from the tail step and referenced to the holding current. Compounds were then incubated for 2 minutes prior to a second measurement of ion channel current using an identical pulse train.

The next series concerns Dog hepatocytes. In words: Metabolic stability and intrinsic clearance in dog hepatocytes (with IVIVE). The series is classed as in vitro ADME. The settings on record: Dog; for Predicted CLh: IVIVE from hepatocyte CLint; for Hepatocyte Clint: Table 6 (IVIVE). As for the experimental part:
(§4) The metabolic stability was expressed as the percentage of parent remaining is calculated from the peak area ratio of NCE remaining after incubation (tx) compared to the time zero (t0) incubation. The percentage of parent test compound remaining at each time point was calculated by comparing the peak area ratio of test compound after incubation (tx) with peak area of time zero (t0) incubation. Similarly, half-life (t½) was calculated using following equation:
(§5) [formula] The intrinsic clearance (Clint) was calculated using the following equations:
(§6) [formula] Scaling factors to represent […] million cells/gm liver and liver/kg body wt.

Experiment in series [4]: as above
The series is classed as in vitro ADME. To be noted: Dog hepatocytes. As for the experimental part:
as §4, §5, §6

Series [5] is described as follows: Plasma protein binding, equilibrium dialysis, rat. It is filed as in vitro ADME. To be noted: plasma (10% plasma, extrapolated to 100% plasma), Sprague-Dawley plasma, 18 hours at 37° C. As for the experimental part: as §1, §2, §3
Setting [6] is: Rat, IV bolus, Table 6, read-out: T1/2 (IV bolus) (converted).
Where [7] appears, read: oral, Rat, Table 6, read-out: % F.
[8] abbreviates: oral, Rat, oral vs IV bolus, doses per compound, read-out: % F (bioavailability).

T2 sequence (Q12809 whole entry): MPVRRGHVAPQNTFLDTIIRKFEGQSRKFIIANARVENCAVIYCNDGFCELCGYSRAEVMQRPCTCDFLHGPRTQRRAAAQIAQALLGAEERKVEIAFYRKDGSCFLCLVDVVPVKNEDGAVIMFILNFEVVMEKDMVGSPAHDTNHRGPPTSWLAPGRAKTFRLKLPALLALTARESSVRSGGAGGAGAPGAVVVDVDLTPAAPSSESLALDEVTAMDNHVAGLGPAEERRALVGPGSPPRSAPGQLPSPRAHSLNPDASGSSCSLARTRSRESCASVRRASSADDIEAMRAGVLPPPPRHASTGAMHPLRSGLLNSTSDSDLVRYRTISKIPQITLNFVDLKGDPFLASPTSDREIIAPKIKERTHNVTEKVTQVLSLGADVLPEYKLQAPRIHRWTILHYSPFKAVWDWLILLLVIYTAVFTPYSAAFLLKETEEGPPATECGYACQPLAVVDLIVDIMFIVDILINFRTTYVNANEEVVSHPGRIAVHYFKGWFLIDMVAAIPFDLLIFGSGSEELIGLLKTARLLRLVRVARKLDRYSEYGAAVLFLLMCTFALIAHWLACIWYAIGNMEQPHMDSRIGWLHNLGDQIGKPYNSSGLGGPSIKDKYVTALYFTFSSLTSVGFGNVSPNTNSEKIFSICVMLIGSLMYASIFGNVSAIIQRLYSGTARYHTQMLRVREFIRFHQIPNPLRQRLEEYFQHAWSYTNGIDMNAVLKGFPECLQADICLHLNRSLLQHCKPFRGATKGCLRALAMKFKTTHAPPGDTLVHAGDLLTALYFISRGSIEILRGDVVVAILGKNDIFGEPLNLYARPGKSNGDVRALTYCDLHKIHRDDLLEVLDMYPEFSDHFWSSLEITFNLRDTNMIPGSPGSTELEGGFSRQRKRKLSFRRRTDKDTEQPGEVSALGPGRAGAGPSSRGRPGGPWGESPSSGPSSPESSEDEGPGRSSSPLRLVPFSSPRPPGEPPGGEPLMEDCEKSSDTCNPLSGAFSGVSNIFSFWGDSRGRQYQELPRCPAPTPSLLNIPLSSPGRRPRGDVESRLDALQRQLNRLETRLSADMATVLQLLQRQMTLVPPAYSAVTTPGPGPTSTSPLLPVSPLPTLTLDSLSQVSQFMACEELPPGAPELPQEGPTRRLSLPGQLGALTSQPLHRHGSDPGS
T1 sequence (P29274 whole entry): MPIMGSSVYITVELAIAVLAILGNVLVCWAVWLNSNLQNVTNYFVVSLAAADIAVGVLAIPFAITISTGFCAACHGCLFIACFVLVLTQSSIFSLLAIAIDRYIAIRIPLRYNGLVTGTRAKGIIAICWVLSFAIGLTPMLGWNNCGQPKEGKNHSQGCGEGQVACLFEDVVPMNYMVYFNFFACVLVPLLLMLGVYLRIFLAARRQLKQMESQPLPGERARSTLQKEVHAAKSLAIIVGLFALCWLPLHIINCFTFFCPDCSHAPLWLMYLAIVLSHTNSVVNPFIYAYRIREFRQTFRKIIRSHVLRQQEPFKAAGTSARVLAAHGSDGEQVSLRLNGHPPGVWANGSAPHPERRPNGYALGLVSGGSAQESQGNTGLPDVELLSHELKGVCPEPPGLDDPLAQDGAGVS

Usually IC50 stands for the point on the concentration scale where inhibition reaches its midpoint. The term fraction unbound denotes the share of the substance not bound to proteins or other matrix. What is called clearance is a measure of how efficiently the substance is removed, as volume per time. Read a high clearance as a high capacity for elimination. One may read the Tmax as the time from dosing to the highest level. As usually defined, the hepatocyte CLint is the capacity of the preparation to metabolise the compound, expressed as a volume cleared per time. For `CCc1c(C)nn2c(N)c(C#N)c(NCCc3ccn(C4(CO)CC4)n3)nc12` [Example 39, 7-amino-3-ethyl-5-((2-(1-(1-(hydroxymethyl)cyclopropyl)-1H-pyrazol-3-yl)ethyl)amino)-2-methylpyrazolo[1,5-a] pyrimidine-6-carbonitrile], the 50% inhibitory concentration (IC50) on A2A receptor was 0.23 nM; against hERG potassium channel, more than 100 µM. Besides, the unbound share (fraction unbound) at 18 h, 10 µM was 0.156 in series [1], 0.125 in series [2] and 0.249 in series [5]. In addition, the “Total CLsystemic in plasma” value in series [3] (Rat, Table 6) is 90 mL/min/kg. In series [3] (Rat, i.v, 15 mg/kg), the “Co (head Co*/)” value is given as 8676 ng/m. In addition, the Vd was 2.4 L/kg in series [3] (intravenous, Rat, Table 6) and 2.4 L/kg in series [3] (iv, Rat, i.v, 15 mg/kg). In series [3] (iv, Rat, i.v, 15 mg/kg), the clearance is 90 ± 15 mL/min/kg. Also, the half-life is 72 min in series [3] (iv, Rat, i.v, 15 mg/kg, read-out: t1/2 (converted)) and 72 min in series [3] (setting [6]). For the same compound, the Cmax in series [3] (po, Rat, 100 mg/kg) was 4100 ng/mL. The time of peak concentration (Tmax) in series [3] (po, Rat, 100 mg/kg) stood at 12 min. In addition, the bioavailability in series [3] (setting [7]) and in series [3] (setting [8]) was 27% in each case. Moreover, the “Distribution relative to TBW” value in series [3] (rats & mice) is listed as 2 × TBW. The “Total CL relative to hepatic clearance” value in series [3] (rats & mice) was found to be 1.6 ×. Moreover, the “Predicted CLh” value with Dog hepatocytes is listed as 18 mL/min/kg. Besides, the “Hepatocyte Clint” value in the series with Dog hepatocytes came out at 10.8 μl/min/10^6. The compound further had an intrinsic metabolic clearance (hepatocyte CLint) at 0.5 μM in series [4] of 10.8 µL/min/1e6 cells.

Regarding `CCc1c(C)nn2c(N)c(C#N)c(NCCc3ccn(C4COCC4CO)n3)nc12` (single isomer, unassigned; (-)) [Example 122b, (−)-7-amino-3-ethyl-5-((2-(1-(4-(hydroxymethyl)tetrahydrofuran-3-yl)-1H-pyrazol-3-yl)ethyl)amino)-2-methyl pyrazolo[1,5-a]pyrimidine-6-carbonitrile], the fraction unbound at 18 h, 10 µM is 0.15 in series [1] and 0.139 in series [5]. For the same compound, the “Total plasma systemic clearance (CL) relative to hepatic blood flow” value in series [3] (Rat, IV bolus) is 1.3 ×. For the same compound, the “Total CLsystemic in plasma” value in series [3] (Rat, Table 6) worked out at 78 mL/min/kg. Further, in series [3] (Rat, i.v, 5 mg/kg), the “Co (head Co*/)” value is listed as 4169 ng/m. The Vd in series [3] (intravenous, Rat, Table 6) is 1.6 L/kg; in series [3] (iv, Rat, i.v, 5 mg/kg), 1.58 L/kg. In series [3] (iv, Rat, i.v, 5 mg/kg), this compound came in with a clearance of 78 ± 17 mL/min/kg. Also, the half-life in series [3] (iv, Rat, i.v, 5 mg/kg, read-out: t1/2 (converted)) was 18 min; in series [3] (setting [6]), 19.8 min. Besides, in series [3] (po, Rat, 30 mg/kg), the Cmax worked out at 983 ng/mL. Besides, in series [3] (po, Rat, 30 mg/kg), the Tmax was found to be 30 min. Besides, the bioavailability in series [3] (oral, 30 mg/kg, Rat, oral vs IV bolus, doses per compound, read-out: % F (bioavailability)) came out at 21%; in series [3] (setting [7]), 21%. The compound further registered an IC50 against hERG potassium channel of more than 100 µM. For the same compound, the “Predicted CLh” value with Dog hepatocytes is listed as 10 mL/min/kg. Also, in the series with Dog hepatocytes, the “Hepatocyte Clint” value is reported as less than 4.1 μl/min/10^6. Further, in series [4], the hepatocyte CLint at 0.5 μM is less than 4.1 µL/min/1e6 cells.

Consider `Cc1cccc(CCNc2nc3c(C)c(C)nn3c(N)c2C#N)n1` [Example 13, 7-amino-5-((2-(6-methylpyridin-2-yl)ethyl)amino)-2,3-dimethylpyrazolo[1,5-a]pyrimidine-6-carbonitrile], for which the IC50 on A2A receptor is 0.25 nM; against hERG potassium channel, more than 100 µM. Moreover, the unbound share (fraction unbound) at 18 h, 10 µM is 0.09 in series [1], 0.0933 in series [2] and 0.0964 in series [5]. Moreover, the “Total CLsystemic in plasma” value in series [3] (Rat, Table 6) is on record as 69 mL/min/kg. In series [3] (Rat, i.v, 3 mg/kg), the “Co (head Co*/)” value worked out at 2242 ng/m. For the same compound, the Vd was found to be 1.4 L/kg in series [3] (intravenous, Rat, Table 6) and 1.4 L/kg in series [3] (iv, Rat, i.v, 3 mg/kg). For the same compound, in series [3] (iv, Rat, i.v, 3 mg/kg), the clearance came out at 69 ± 9 mL/min/kg. Further, the half-life is 24 min in series [3] (iv, Rat, i.v, 3 mg/kg, read-out: t1/2 (converted)) and 24.6 min in series [3] (setting [6]). Also, the Cmax in series [3] (po, Rat, 10 mg/kg) was found to be 4.2 ng/mL. Also, the time of peak concentration (Tmax) in series [3] (po, Rat, 10 mg/kg) stood at 12 min. Also, the bioavailability in series [3] (setting [7]) was less than 1%; in series [3] (setting [8]) it was less than 5%; in series [3] (po, Rat, oral vs IV bolus, doses per compound, read-out: % F (bioavailability)), less than 1%. The “Distribution relative to TBW” value in series [3] (rats & mice) was 2 × TBW. Further, the “Predicted CLh” value in the series with Dog hepatocytes is reported as 17 mL/min/kg. Also, the “Hepatocyte Clint” value in the series on Dog hepatocytes was 9.5 μl/min/10^6. The hepatocyte CLint at 0.5 μM in series [4] worked out at 9.5 µL/min/1e6 cells.
